According to PubChem BioAssay (NCI):
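Protocol summary: plate cells (96-well), add compound at 5 concentrations, incubate 48 h, interpolate endpoints linearly. Abbreviation: GI50, concentration required for 50% inhibition of growth. TGI: total growth inhibition.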

Experiments:
Experiment in all cases: NCI anticancer screen, dose series, 48 h
IGROV1 ovarian = tested on: IGROV1 ovarian
CCRF-CEM leukemia = tested on: CCRF-CEM leukemia
TK-10 renal = tested on: TK-10 renal
MDA-MB-435 = tested on: MDA-MB-435
CAKI-1 renal = tested on: CAKI-1 renal
DU-145 prostate = tested on: DU-145 prostate
MDA-MB-231 breast = tested on: MDA-MB-231 breast
OVCAR-5 ovarian = tested on: OVCAR-5 ovarian
SNB-19 CNS = tested on: SNB-19 CNS
HCT-116 colon = tested on: HCT-116 colon
SF-268 CNS = tested on: SF-268 CNS
UACC-62 melanoma = tested on: UACC-62 melanoma
T-47D breast = tested on: T-47D breast
NCI-H226 lung = tested on: NCI-H226 lung
SW-620 colon = tested on: SW-620 colon
M14 melanoma = tested on: M14 melanoma
U251 CNS = tested on: U251 CNS
786-0 renal = tested on: 786-0 renal
ACHN renal = tested on: ACHN renal
BT-549 breast = tested on: BT-549 breast
NCI/ADR-RES ovarian = tested on: NCI/ADR-RES ovarian
RPMI-8226 leukemia = tested on: RPMI-8226 leukemia
EKVX NSCLC = tested on: EKVX NSCLC
SN12C renal = tested on: SN12C renal
HCC-2998 colon = tested on: HCC-2998 colon
HT29 colon = tested on: HT29 colon
SK-MEL-2 melanoma = tested on: SK-MEL-2 melanoma
OVCAR-8 ovarian = tested on: OVCAR-8 ovarian
LOX IMVI melanoma = tested on: LOX IMVI melanoma
RXF 393 renal = tested on: RXF 393 renal
OVCAR-4 ovarian = tested on: OVCAR-4 ovarian
SK-MEL-5 melanoma = tested on: SK-MEL-5 melanoma
SF-295 CNS = tested on: SF-295 CNS
SF-539 CNS = tested on: SF-539 CNS
KM12 colon = tested on: KM12 colon
SK-MEL-28 melanoma = tested on: SK-MEL-28 melanoma
OVCAR-3 ovarian = tested on: OVCAR-3 ovarian
SNB-75 CNS = tested on: SNB-75 CNS
NCI-H522 lung = tested on: NCI-H522 lung
PC-3 prostate = tested on: PC-3 prostate
A549 NSCLC = tested on: A549 NSCLC
MCF7 breast = tested on: MCF7 breast
SK-OV-3 ovarian = tested on: SK-OV-3 ovarian
HOP-62 NSCLC = tested on: HOP-62 NSCLC
A498 renal = tested on: A498 renal
UACC-257 melanoma = tested on: UACC-257 melanoma
MALME-3M melanoma = tested on: MALME-3M melanoma
SR leukemia = tested on: SR leukemia
MOLT-4 leukemia = tested on: MOLT-4 leukemia
NCI-H460 lung = tested on: NCI-H460 lung
COLO 205 colon = tested on: COLO 205 colon
HL-60(TB) leukemia = tested on: HL-60(TB) leukemia
HS 578T breast = tested on: HS 578T breast
UO-31 renal = tested on: UO-31 renal
NCI-H23 lung = tested on: NCI-H23 lung
HOP-92 NSCLC = tested on: HOP-92 NSCLC
HCT-15 colon = tested on: HCT-15 colon
K-562 leukemia = tested on: K-562 leukemia

## Cc1ccc2c(n1)C(=O)C(Cl)=C(Nc1cc(C(F)(F)F)cc(C(F)(F)F)c1)C2=O
IGROV1 ovarian
  GI50: 3.6 µM
  TGI: 14.1 µM
CCRF-CEM leukemia
  GI50: 0.651 µM
  TGI: 3.59 µM
TK-10 renal
  GI50: 1.88 µM
  TGI: 3.31 µM
MDA-MB-435
  GI50: 4.67 µM
  TGI: 16.4 µM
CAKI-1 renal
  GI50: 1.5 µM
  TGI: 2.94 µM
DU-145 prostate
  GI50: 2.6 µM
  TGI: 6.47 µM
MDA-MB-231 breast
  GI50: 3.54 µM
  TGI: 14 µM
OVCAR-5 ovarian
  GI50: 19.4 µM
  TGI: 38.4 µM
SNB-19 CNS
  GI50: 13.8 µM
  TGI: 40.1 µM
HCT-116 colon
  GI50: 1.43 µM
  TGI: 2.94 µM
SF-268 CNS
  GI50: 6.38 µM
  TGI: 23.5 µM
UACC-62 melanoma
  GI50: 4.97 µM
  TGI: 19.3 µM
T-47D breast
  GI50: 1.63 µM
  TGI: 5.18 µM
NCI-H226 lung
  GI50: 5.36 µM
  TGI: 41.5 µM
SW-620 colon
  GI50: 2.29 µM
  TGI: 5.32 µM
M14 melanoma
  GI50: 4.24 µM
  TGI: 17.9 µM
U251 CNS
  GI50: 10.3 µM
  TGI: 23.5 µM
786-0 renal
  GI50: 1.72 µM
  TGI: 3.36 µM
ACHN renal
  GI50: 1.92 µM
  TGI: 3.42 µM
BT-549 breast
  GI50: 1.86 µM
  TGI: 6.61 µM
NCI/ADR-RES ovarian
  GI50: 2.74 µM
  TGI: 8.6 µM
RPMI-8226 leukemia
  GI50: 1.58 µM
  TGI: 5.14 µM
EKVX NSCLC
  GI50: 2.22 µM
  TGI: 5.45 µM
SN12C renal
  GI50: 4.55 µM
  TGI: > 100 µM
HCC-2998 colon
  GI50: 4.61 µM
  TGI: 18.2 µM
HT29 colon
  GI50: 2.39 µM
  TGI: 6.18 µM
SK-MEL-2 melanoma
  GI50: 3.96 µM
  TGI: 15.6 µM
OVCAR-8 ovarian
  GI50: 4.16 µM
  TGI: 24.2 µM
LOX IMVI melanoma
  GI50: 1.6 µM
  TGI: 3.49 µM
RXF 393 renal
  GI50: 1.46 µM
  TGI: 2.82 µM
OVCAR-4 ovarian
  GI50: 1.44 µM
  TGI: 2.79 µM
SK-MEL-5 melanoma
  GI50: 3.28 µM
  TGI: 11.4 µM
SF-295 CNS
  GI50: 12.6 µM
  TGI: 25.8 µM
SF-539 CNS
  GI50: 5.4 µM
  TGI: 18.3 µM
KM12 colon
  GI50: 12.3 µM
  TGI: 28.9 µM
SK-MEL-28 melanoma
  GI50: 2.21 µM
  TGI: 4.29 µM
OVCAR-3 ovarian
  GI50: 1.61 µM
  TGI: 3.02 µM
SNB-75 CNS
  GI50: 9.23 µM
  TGI: 22.6 µM
NCI-H522 lung
  GI50: 1.95 µM
  TGI: 5.97 µM
PC-3 prostate
  GI50: 5.29 µM
  TGI: 20 µM
A549 NSCLC
  GI50: 16.9 µM
  TGI: 38 µM
MCF7 breast
  GI50: 2.13 µM
  TGI: 5.45 µM
SK-OV-3 ovarian
  GI50: 13.9 µM
  TGI: 27.1 µM
HOP-62 NSCLC
  GI50: 15.9 µM
  TGI: 31.3 µM
A498 renal
  GI50: 8.72 µM
  TGI: 22 µM
UACC-257 melanoma
  GI50: 1.68 µM
  TGI: 3.3 µM
MALME-3M melanoma
  GI50: 1.67 µM
  TGI: 3.58 µM
SR leukemia
  GI50: 0.31 µM
  TGI: 1.98 µM
MOLT-4 leukemia
  GI50: 0.305 µM
  TGI: 1.05 µM
NCI-H460 lung
  GI50: 13.7 µM
  TGI: 36.8 µM
COLO 205 colon
  GI50: 1.93 µM
  TGI: 4.31 µM
HL-60(TB) leukemia
  GI50: 0.547 µM
  TGI: 2.58 µM
HS 578T breast
  GI50: 10.6 µM
  TGI: 76.4 µM
UO-31 renal
  GI50: 1.41 µM
  TGI: 2.83 µM
NCI-H23 lung
  GI50: 1.92 µM
  TGI: 4.94 µM
HOP-92 NSCLC
  GI50: 1.57 µM
  TGI: 3.51 µM

## O=C(NNc1nc2cc(F)cc(F)c2n2cccc12)c1cnccn1
IGROV1 ovarian
  GI50: 0.206 µM
  TGI: 10.7 µM
CCRF-CEM leukemia
  GI50: 0.163 µM
  TGI: > 100 µM
TK-10 renal
  GI50: 0.613 µM
  TGI: 10.5 µM
MDA-MB-435
  GI50: 0.61 µM
  TGI: 13.5 µM
CAKI-1 renal
  GI50: 0.34 µM
  TGI: 6.66 µM
DU-145 prostate
  GI50: 0.457 µM
  TGI: 13.7 µM
MDA-MB-231 breast
  GI50: 0.807 µM
  TGI: 12.3 µM
OVCAR-5 ovarian
  GI50: 0.715 µM
  TGI: 14.4 µM
SNB-19 CNS
  GI50: 0.426 µM
  TGI: 16.9 µM
HCT-116 colon
  GI50: 0.297 µM
  TGI: 6.79 µM
SF-268 CNS
  GI50: 0.365 µM
  TGI: 14.5 µM
UACC-62 melanoma
  GI50: 0.407 µM
  TGI: 3.85 µM
T-47D breast
  GI50: 0.403 µM
  TGI: 12.6 µM
NCI-H226 lung
  GI50: 1.12 µM
  TGI: 6.89 µM
SW-620 colon
  GI50: 0.402 µM
  TGI: 14.4 µM
M14 melanoma
  GI50: 0.279 µM
  TGI: 2.85 µM
U251 CNS
  GI50: 0.172 µM
  TGI: 8.92 µM
786-0 renal
  GI50: 0.371 µM
  TGI: 4.02 µM
ACHN renal
  GI50: 0.239 µM
  TGI: 10.6 µM
BT-549 breast
  GI50: 1.12 µM
  TGI: 7.68 µM
NCI/ADR-RES ovarian
  GI50: 0.278 µM
  TGI: 5.22 µM
RPMI-8226 leukemia
  GI50: 0.379 µM
  TGI: > 100 µM
EKVX NSCLC
  GI50: 0.32 µM
  TGI: 12 µM
SN12C renal
  GI50: 0.641 µM
  TGI: 15 µM
HCC-2998 colon
  GI50: 0.564 µM
  TGI: 14.9 µM
HT29 colon
  GI50: 0.571 µM
  TGI: 8.73 µM
HCT-15 colon
  GI50: 0.106 µM
  TGI: 21.3 µM
SK-MEL-2 melanoma
  GI50: 0.893 µM
  TGI: 4.37 µM
OVCAR-8 ovarian
  GI50: 0.279 µM
  TGI: 4.91 µM
LOX IMVI melanoma
  GI50: 0.211 µM
  TGI: 5.93 µM
RXF 393 renal
  GI50: 0.659 µM
  TGI: 4.77 µM
OVCAR-4 ovarian
  GI50: 0.302 µM
  TGI: 8.99 µM
SK-MEL-5 melanoma
  GI50: 1.05 µM
  TGI: 5.76 µM
SF-295 CNS
  GI50: 0.25 µM
  TGI: 6.45 µM
SF-539 CNS
  GI50: 0.436 µM
  TGI: 10.3 µM
KM12 colon
  GI50: 0.311 µM
  TGI: 12.6 µM
K-562 leukemia
  GI50: 0.364 µM
  TGI: > 100 µM
SK-MEL-28 melanoma
  GI50: 0.549 µM
  TGI: 13.5 µM
SNB-75 CNS
  GI50: 1.13 µM
  TGI: 9.37 µM
NCI-H522 lung
  GI50: 0.392 µM
  TGI: 7.5 µM
PC-3 prostate
  GI50: 0.448 µM
  TGI: 13.5 µM
A549 NSCLC
  GI50: 0.288 µM
  TGI: 11.3 µM
MCF7 breast
  GI50: 0.353 µM
  TGI: 7.61 µM
SK-OV-3 ovarian
  GI50: 0.539 µM
  TGI: 7.27 µM
HOP-62 NSCLC
  GI50: 0.147 µM
  TGI: 4.17 µM
A498 renal
  GI50: 1.37 µM
  TGI: 5.57 µM
UACC-257 melanoma
  GI50: 0.587 µM
  TGI: 3.43 µM
MALME-3M melanoma
  GI50: 0.904 µM
  TGI: 10.4 µM
SR leukemia
  GI50: 0.0801 µM
  TGI: > 87.8 µM
MOLT-4 leukemia
  GI50: 0.291 µM
  TGI: > 100 µM
NCI-H460 lung
  GI50: 0.178 µM
  TGI: 3.01 µM
COLO 205 colon
  GI50: 0.324 µM
  TGI: 4.56 µM
HL-60(TB) leukemia
  GI50: 0.263 µM
HS 578T breast
  GI50: 1.74 µM
  TGI: 24.1 µM
UO-31 renal
  GI50: 0.107 µM
  TGI: 2.93 µM
NCI-H23 lung
  GI50: 0.872 µM
  TGI: 15.8 µM
HOP-92 NSCLC
  GI50: 0.851 µM
  TGI: 7.35 µM

## COc1ccc(-c2nc3cc(Cl)c(Cl)cc3n2CC(=O)N=Nc2c(O)[nH]c3ccc(Br)cc23)cc1
SF-268 CNS
  GI50: 3.62 µM
  TGI: > 100 µM
NCI-H226 lung
  GI50: 3.75 µM
  TGI: > 100 µM
BT-549 breast
  GI50: 6.73 µM
  TGI: > 100 µM
RXF 393 renal
  GI50: 1.87 µM
  TGI: 3.71 µM
SNB-75 CNS
  GI50: 2.11 µM
  TGI: 12.4 µM
HS 578T breast
  GI50: 2.05 µM
  TGI: 5.72 µM
